Assay results from patent US10227380B2, “Triazole-crosslinked and thioether-crosslinked peptidomimetic macrocycles” (AILERON THERAPEUTICS, INC., priority 2012, dated 2019).
Bridge positions count the residues as written; N and C are the ends. Square brackets hold non-standard residues; d marks the D form. * marks the point of attachment. 5FAM = O=C1OC2(c3ccc(O)cc3Oc3cc(O)ccc32)c2ccc(C(=O)*)cc21; Cba = N[C@@H](CC1CCC1)C(=O)O; βAla = NCCC(=O)O

Tests used:
SJSA-1 cells = experiment: Cell Viability Assay (MTT), SJSA-1; type: cell-based; conditions: read-out: SJSA-1 EC50 (72 h)
Protocol: The assay is performed according to the following general protocol: • Cell Plating: Trypsinize, count and seed cells at the pre-determined densities in 96-well plates a day prior to assay.
Add 180 μL of the assay media per well. Control wells with no cells, receive 200 μl media.
Peptide dilution: all dilutions are made at room temperature and added to cells at room temperature. • Prepare 10 mM stocks of the peptides in DMSO. Serially dilute the stock using 1:3 dilution scheme to get 10, 3.3, 1.1, 0.33, 0.11, 0.03, 0.01 mM solutions using DMSO as diluents. […] Also prepare DMSO/sterile water (3% DMSO) mix for control wells. • Thus the working stocks concentration range μM will be 300, 100, 30, 10, 3, 1, 0.3 and 0 μM. […] H1-H3 will receive 20 ul of assay media. H4-H9 will receive 20 ul of 3% DMSO-water vehicle. […] Nutlin was diluted using the same dilution scheme as peptides.
(20 μl of 300 μM peptide+180 μl of cells in media=30 μM final concentration in 200 μl volume in wells). Mix gently a few times using pipette. […] Viability of SJSA-1, RKO, RKO-E6, HCT-116 cells is determined on day 3, MCF-7 cells on day 5 and SW-480 cells on day 6. At the end of designated incubation time, allow the plates to come to room temperature. Remove 80 μl of assay media from each well. Add 15 μl of thawed MTT reagent to each well. • Allow plate to incubate for 2 h at 37° C. in humidified 5% CO2 atmosphere and add 100 μl solubilization reagent as per manufacturer's protocol.

MDM2 = MDM2 (Homo sapiens, UniProt Q00987); experiment: Competitive Fluorescence Polarization Assay for MDM2; type: binding
Sequence of MDM2 (Q00987 1-125): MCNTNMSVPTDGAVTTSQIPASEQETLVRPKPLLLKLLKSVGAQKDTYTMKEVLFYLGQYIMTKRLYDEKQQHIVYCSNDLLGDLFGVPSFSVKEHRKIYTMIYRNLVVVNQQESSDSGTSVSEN
Protocol: Competitive Fluorescence Polarization Assay for MDM2
The assay is performed according to the following general protocol: • 1. Dilute MDM2 (In-house, 41 kD) into FP buffer (High salt buffer-200 mM Nacl, 5 mM CHAPS, pH 7.5) to make 84 nM (2×) working stock solution. • 2. Add 20 μl of 84 nM (2×) of protein stock solution into each well of 96-well black HE microplate (Molecular Devices) • 3. Dilute 1 mM (in 100% DMSO) of FAM labeled linear peptide with DMSO to 100 μM (dilution 1:10). Then, dilute from 100 μM to 10 μM with water (dilution 1:10) and then dilute with FP buffer from 10 μM to 40 nM (dilution 1:250). This is the working solution which will be a 10 nM concentration in well (dilution 1:4). Keep the diluted FAM labeled peptide in the dark until use. • 4. Make unlabeled peptide dose plate with FP buffer starting with 1 μM (final) of peptide and making 5 fold serial dilutions for 6 points using following dilution scheme. • Dilute 10 mM (in 100% DMSO) with DMSO to 5 mM (dilution 1:2). Then, dilute from 5 mM to 500 μM with H2O (dilution 1:10) and then dilute with FP buffer from 500 μM to 20 μM (dilution 1:25). Making 5 fold serial dilutions from 4 μM (4×) for 6 points. • 5. Transfer 10 μl of serial diluted unlabeled peptides to each well which is filled with 20 μl of 84 nM of protein. • 6. Add 10 μl of […] of FAM labeled peptide into each well and incubate for 3 hr to read. […]

MDMX = molecular target: T1, MDMX (Homo sapiens, UniProt O15151); experiment: Competitive Fluorescence Polarization Assay for MDMX; type: binding
T1 sequence (O15151 1-125): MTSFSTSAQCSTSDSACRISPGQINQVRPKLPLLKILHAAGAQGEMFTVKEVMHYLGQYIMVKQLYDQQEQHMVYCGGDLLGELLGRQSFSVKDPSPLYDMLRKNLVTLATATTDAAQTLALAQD
Protocol: Competitive Fluorescence Polarization Assay for MDMX
The assay is performed according to the following general protocol: • 1. Dilute MDMX (In-house, 40 kD) into FP buffer (High salt buffer-200 mM Nacl, 5 mM CHAPS, pH 7.5.) to make 300 nM (2×) working stock solution. 2. Add 20 μl of 300 nM (2×) of protein stock solution into each well of 96-well black HE microplate (Molecular Devices) • 3. Dilute 1 mM (in 100% DMSO) of FAM labeled linear peptide with DMSO to 100 μM (dilution 1:10). Then, dilute from 100 μM to 10 μM with water (dilution 1:10) and then dilute with FP buffer from 10 μM to 40 nM (dilution 1:250). This is the working solution which will be a 10 nM concentration in well (dilution 1:4). Keep the diluted FAM labeled peptide in the dark until use. • 4. Make unlabeled peptide dose plate with FP buffer starting with 5 μM (final) of peptide and making 5 fold serial dilutions for 6 points using following dilution scheme. • 5. Dilute 10 mM (in 100% DMSO) with DMSO to 5 mM (dilution 1:2). Then, dilute from 5 mM to 500 μM with H2O (dilution 1:10) and then dilute with FP buffer from 500 μM to 20 μM (dilution 1:25). Making 5 fold serial dilutions from 20 μM (4×) for 6 points. • 6. Transfer 10 μl of serial diluted unlabeled peptides to each well which is filled with 20 μl of 300 nM of protein. • 7. Add 10 μl of […] of FAM labeled peptide into each well and incubate for 3 hr to read. […]

Row | Substance | EC50 (SJSA-1 cells) [µM] | Ki (MDM2) [nM] | Ki (MDMX) [nM]
1 | 452 (Ac-LTF[Alpha‑Me R‑azide 1,5 triazole (6 carbon) alanine]AYWAQL[Alpha‑Me alkyne 1,5 triazole (5 carbon) alanine]AAAAA[dA]-NH2; triazole 4-11; not fully specified; printed as Ac-LTF$5rn6AYWAQL$5a5AAAAAa-NH2) [compound 452] | > 30 | – | –
2 | 461 (5FAM-[βAla]LTF[Alpha‑Me R‑azide 1,4 triazole (6 carbon) alanine]EYWAQ[Cba][Alpha‑Me alkyne 1,4 triazole (5 carbon) alanine]SAA-NH2; triazole 5-12; not fully specified) [compound 461] | 5 to 15 | – | –
3 | 463 (5FAM-[βAla]LTF[Alpha‑Me R‑azide 1,5 triazole (6 carbon) alanine]EYWAQ[Cba][Alpha‑Me alkyne 1,5 triazole (5 carbon) alanine]SAA-NH2; triazole 5-12; not fully specified) [compound 463] | 15 to 30 | – | –
4 | 464 (5FAM-[βAla]LTA[Alpha‑Me R‑azide 1,5 triazole (6 carbon) alanine]EYWAQ[Cba][Alpha‑Me alkyne 1,5 triazole (5 carbon) alanine]SAA-NH2; triazole 5-12; not fully specified) [compound 464] | > 30 | – | –
5 | 466 (LTFAEYWAQAASAA; not fully specified; stapled, Ac, NH2, Cba5Prp; N-term Ac; MOD_RES (4)..(4): Alpha-Me R-azide 1,4 triazole (6 carbon) alanine olefin amino acid connected by an all-carbon crosslinker comprising one double bond; misc_feature (4)..(11): Crosslink between residues; MOD_RES () [compound 466] | – | < 10 | < 10
